Consider two compounds from paper PMC6984126, “Ficus deltoidea extract down-regulates protein tyrosine phosphatase 1B expression in a rat model of type 2 diabetes mellitus: a new insight into its antidiabetic mechanism” (Journal of Nutritional Science, 2020).

Data set [1] relates to streptozotocin–nicotinamide-induced type 2 diabetic rats. Description: Serum hepatic markers, bilirubin and total protein in STZ–NA diabetic rats. It counts as in vivo, Wistar rats. The settings on record: MET 150 mg/kg orally, 4 weeks. As to the method: (§1) NA was dissolved in normal saline.
(§2) At the end of the 28th day, blood samples were withdrawn from the retro-orbital venous plexus under light ether anaesthesia into two sampling tubes, one containing Na-EDTA at day 28 post-medication for the estimation of Hb([22]). The second blood sample was centrifuged at 3500 rpm for 15 min to separate sera for the estimation of insulin level([23]). Other biochemical parameters such as alanine transaminase and aspartate transaminase activities in serum were measured([24]). Serum levels of total bilirubin([25]), total protein([26]), TAG([27]), total cholesterol([28]), HDL-cholesterol([29]) and LDL-cholesterol([30]) were measured using commercially available kits (Quimica Clinica). Preparation of pancreatic homogenate was done according to Mansour et al.([31]). The activities of superoxide dismutase (SOD), glutathione peroxidase (GPx) and catalase (CAT) in hepatic and pancreatic tissues were estimated([32]–[34]), respectively. Reduced glutathione (GSH)([35]), lipid peroxidation products were estimated by determining malondialdehyde (MDA) content in the hepatic and pancreatic tissue([36]) and GLUT2 was determined using commercial diagnostic kits (Chema Diagnostica)([37]).

The subject of data set [2] is phosphoenolpyruvate carboxykinase (PEPCK) mRNA. In words: Hepatic gene expression by quantitative real-time PCR: PEPCK. The settings on record: MET 150 mg/kg. In general terms: In qPCR the cycle at which signal appears reflects the starting amount.
Method: (§3) Total RNA was isolated from rat livers using an Rneasy Mini Kit according to the manufacturer's protocol (Qiagen). First-strand cDNA synthesis from 1 µg total RNA was done employing a reverse transcriptase kit and oligo(dT) (Thermo Scientific). PTP1B, phosphoenolpyruvate carboxykinase (PEPCK), glucose 6-phosphatase (G6Pase), GLUT2 (Slc2a2) and insulin receptor (INR) target genes were amplified by quantitative real-time-PCR using specific primers (Supplementary Table S1). cDNA was added to a Quantifast SYBR Green qPCR Master Mix (Qiagen) containing 30 pg/ml of each primer. […] The β-actin gene was amplified in the same reaction as a reference gene to normalise data. Relative gene expression was calculated using the Livak & Schmittgen method([42]).
The next data set relates to PTP1B mRNA. In words: Hepatic gene expression by quantitative real-time PCR: PTP1B. Conditions: liver mRNA; MET 150 mg/kg.
The subject of the next data set is GLUT2 gene (Slc2a2) mRNA. Description: Hepatic gene expression by quantitative real-time PCR: Slc2a2. The settings on record: liver mRNA; MET 150 mg/kg.
Another data set has as its system GLUT2. Description: GLUT2 protein levels in liver and pancreas of diabetic rats. It counts as in vivo, Wistar rats. The settings on record: MET 150 mg/kg. On the procedure: as §1, §2
Data set [3] deals with streptozotocin–nicotinamide-induced type 2 diabetic rats. In words: Fasting blood glucose, insulin and Hb in STZ–NA diabetic rats. It counts as in vivo, Wistar rats. The settings on record: MET 150 mg/kg orally; 4 weeks. On the procedure:
as §1, §2

For data set [4], the system named is glucose 6-phosphatase (G6Pase) mRNA. Description: Hepatic gene expression by quantitative real-time PCR: G6Pase. Conditions: MET 150 mg/kg.
Method: as §3
In data set [5] the test system is streptozotocin–nicotinamide-induced type 2 diabetic rats. In words: Pancreatic oxidative stress biomarkers in STZ–NA diabetic rats. It counts as in vivo, Wistar rats. The settings on record: MET 150 mg/kg. As to the method:
as §1, §2

Data set [6] concerns insulin receptor (INR) mRNA. In words: Hepatic gene expression by quantitative real-time PCR: insulin receptor. Conditions: MET 150 mg/kg.
Method: as §3

Broadly, the melting point is the temperature, or range, at which the solid turns liquid.

Marks after values point to notes of the source that are not given here.

Method for GLUT2 gene (Slc2a2) mRNA: as §3
Method for PTP1B mRNA: as §3

Turning to `CC1(C)CC[C@]2(C)CC[C@]3(C)C(=C[C@H](O)C4[C@@]5(C)CC[C@H](O)[C@@](C)(C(=O)O)C5CC[C@]43C)C2C1` (stereo partly drawn) [Compound F3, 3β,11β-dihydroxyolean-12-en-23-oic acid], the melting point fell in the range of 308 to 309 °C.

For the compound `CN(C)C(=N)N=C(N)N` [MET, metformin], in [1], the Total bilirubin is reported as 4† mg/l and the Total protein was 114* g/l. The “Expression of PEPCK in the liver” value in data set [2] is listed as “decreased expression”. In the data set with PTP1B mRNA, the “PTP1B expression level, % of the levels in the diabetic group” value is recorded as “approximately 75%”. The “Slc2a2 expression, % of the normal level” value in the data set on GLUT2 gene (Slc2a2) mRNA is 92%. Moreover, in the data set on GLUT2, the “GLUT2 in the liver compared with the diabetic control” value is “significantly increased” and the “GLUT2 in the pancreas compared with the diabetic control” value is “significantly increased”. Moreover, the Hb in [3] is on record as 135† g/l. In addition, the “Expression of G6Pase in the liver” value in [4] was “decreased expression”. In [5], the “Effect on MDA level in the pancreas of diabetic rats” value is reported as “did not significantly affect”, the “Increase in pancreatic GPx compared with diabetic control rats” value worked out at 63% and the “Increase in pancreatic GSH content” value worked out at 46%. Further, the “Effect of STZ on hepatic insulin receptor mRNA levels” value in [6] was “reversed”.
